Laboratory results taken from patent US20260285992A1, “GIP ACTIVITY MODULATORS AND ORTHOSTATIC INTOLERANCE” (Antag Therapeutics ApS, priority 2023, published 2026).

How the values were obtained:
[1] = Orthostatic challenges before and after subcutaneous GIP (1-42) or placebo in fasted healthy subjects: heart rate, blood pressure and clinical signs; assay type: in vivo, human
Procedure: Synthetic human GIP (1-42) (GIP) (PolyPeptide Group, Strasbourg, France) was dissolved in a sodium hydrogen carbonate buffer with 0.5% human serum albumin in NaCl 9 mg/ml to a final concentration of 4 mg/ml. The solution was sterile filtered and dispensed into glass ampoules. On the appropriate study days, the GIP solutions were further diluted in saline (NaCl 9 mg/ml) to 125 μg/ml. Saline (NaCl 9 mg/mL) was used as placebo.
At the beginning of each study day, participants were weighed and received either a placebo injection or a weight-dependent GIP (1-42) dose of 2.7 μg/kg at time 0.
Four healthy, non-medicated participants between 33-40 years old (one male and three females) were included in the study. On each of the two study days, participants arrived after an overnight fast (at least 10 h fasting). To enable continuous heart rate monitoring, three electrodes compatible with the Holter Spiderview recorder were placed over the rib at V5, on the xiphoid muscle at the bottom of the sternum, and at the sternum over the manubrium after the skin was disinfected or shaved and disinfected for the male. Baseline characterization was initiated at timepoint-60 min and lasted for one hour. For baseline characterization, the participants alternated between the supine position and 10 min orthostatic challenges initiated at timepoints −45 min and −20 min. Orthostatic challenges were elicited by actively standing up from the hospital bed. At timepoint 0 min, the participants received a subcutaneous injection of either 2.7 μg/kg GIP or saline in a single-blinded manner. Following the injection, the participants rested in the supine position for one hour when not doing 10 min orthostatic challenges initiated at 15 min and 40 min post-injection. At time points −50 min, −40 min, −30 min, 10 min, 20 min, 45 min, and 55 min systolic- and diastolic blood pressure as well as heart rate were measured using the Omron M2 blood pressure monitor. The two study days were identical except for the injection of either GIP or saline. Fasting prior to administration of GIP mimics the body's natural response to eating, as eating induces GIP secretion. The method employed thus mimics fasting or postprandial conditions with the emphasis on GIP's physiological effects.

[2] = in vivo; cited from earlier work

YAEGTFISDYSIAMDKIHQQDFVNWLLAQKGKKNDWKHNITQ [GIP]
effect on orthostatic tolerance (conclusion) ([1]; by decreasing SBP and DBP and increasing heart rate, in men and women): significantly worsens orthostatic tolerance | subjects who experienced presyncope and had to lay down ([1]; first orthostatic challenge following GIP administration, four subjects, 2.7 μg/kg s.c.): one of the subjects | increase in heart rate over baseline supine levels, during the orthostatic challenge ([1]; four healthy fasted subjects, 2.7 μg/kg GIP (1-42) s.c., orthostatic challenge, Omron M2 monitor, FIG. 1): 36 bpm | increase in heart rate over baseline supine levels, supine position ([1]; four healthy fasted subjects, 2.7 μg/kg GIP (1-42) s.c., supine, Omron M2 monitor, FIG. 1): 17 bpm | change in DBP during the orthostatic challenge compared to placebo levels ([1]; four healthy fasted subjects, 2.7 μg/kg s.c., orthostatic challenge, FIG. 5): −13 mmHg | decrease in SBP during the orthostatic challenges compared to placebo levels ([1]; four healthy fasted subjects, 2.7 μg/kg s.c., orthostatic challenges, FIG. 4): 12 mmHg | decrease in SBP in the supine position compared to placebo levels ([1]; four healthy fasted subjects, 2.7 μg/kg s.c., supine, FIG. 4): 4-5 mmHg | change in DBP in the supine position compared to placebo levels ([1]; four healthy fasted subjects, 2.7 μg/kg s.c., supine, FIG. 5): −10 mmHg | subjects who reported significant dizziness and lightheadedness ([1]; orthostatic challenges post GIP-injection, 2.7 μg/kg s.c.): Three out of four subjects | increase in heart rate compared to baseline supine heart rate during the first orthostatic challenge post injection (Holter monitor) ([1]; two subjects, 2.7 μg/kg s.c., first orthostatic challenge post injection, FIGS. 2 and 3): 49-50 bpm | gradual increase in supine heart rate compared to baseline supine heart rate (Holter monitor) ([1]; two subjects, 2.7 μg/kg s.c., within 15 min, range depends on the subject, FIGS. 2 and 3): 19-28 bpm | half-life [2]: ~ 4 min
